Values quoted from earlier work, collected in US11666686B2, “Amtimicrobial silicones” (WYNNVISION, LLC, priority 2020, dated 2023).

In the case of CCCCCCCCCCCCCCN(C)C [C14, N,N-dimethyltetradecylamine], the pKa is given as ~10.
